Assay results published in patent publication US9956200B2, “Compositions comprising dihydroquercetin for use in methods for treating the effects associated with skin inflammatory disorders” (BIONOOX SUISSE SA, priority 2014, dated 2018).
Where “and” joins values, the source holds several entries; their conditions need not be identical. Identical values can stand only once.

Tests used:
Type in all cases: cell-based
[1] = test system: polymorphonuclear neutrophils; experiment: Oxygen consumption of polymorphonuclear neutrophils triggered by PMA and fMLP; settings: data not shown
[2] = test system: neutrophils triggered by fMLP; experiment: ROS production by luminol chemiluminescence, neutrophils triggered by fMLP; settings: fMLP 10^−6 M; DHQ 1, 10 or 100 μM, concentration per sample not given
Procedure: Neutrophils (5×10^5) are suspended in 0.5 mL of Hanks balanced salt solution containing 10 μM luminol at 37° C. The cells are then stimulated with 10^−6M fMLF (N-formylmethionyl-leucyl-phenylalanine). Chemiluminescence is recorded with a luminometer (Berthold-Biolumat LB937). Similarly, neutrophils were triggered by fMLP (10^−6 M) in the presence of different concentrations of DHQ (0, 1, 10 and 100 μM) at 37° C. in Hanks buffer containing 10 μM luminol and chemiluminescence was measured by a chemiluminometer. Total chemiluminescence counts during 22.21 min. (integrals) corresponding to total ROS production were determined.

human mast cells = experiment: Mast cell degranulation (beta-hexosaminidase release) induced by IgE then anti-IgE; settings: versus kinase inhibitors and chromoglycate (reference molecule)
Source text: Pure populations of human mast cells (HMC) are obtained by long-term culture of human normal hematopoietic progenitors (CD34^+ cells) in the continuous presence of Stem Cell Factor (SCF). Sources of these CD34^+ cells are mainly bone marrow, cord blood or peripheral blood. Usually, mononuclear cells from bone marrow and cord blood contain 0.5-1% of CD34^+ cells, whereas peripheral blood contains less than 0.1% of CD34^+ cells. Hematopoietic progenitor cells can be rapidly and efficiently enriched to a purity of about 85-98% using positive selection of magnetically labeled CD34^+ cells. Hematopoietic progenitor cells are then magnetically labeled using MACS CD34 MicroBeads. The magnetically labeled cells are enriched on positive selection columns in the magnetic field. Mononuclear cells from peripheral blood (PBMC), cord blood, or bone marrow may otherwise be obtained by density gradient centrifugation over Ficoll Paque®. Fractionation methods for producing mast cells are described in the art (see for instance Arock et al., 2008, Methods in Molecular biology 415: 241-254). Mast cell degranulation was induced by sequential treatment of mast cell by IgE, then by anti-IgE antibodies. Degranulation was subsequently measured by evaluating the release of beta-hexosaminidase, 1 h after IgE stimulation (see FIG. 4).

## O=C1c2c(O)cc(O)cc2OC(c2ccc(O)c(O)c2)C1O (stereo not shown) [DHQ]
[1]
  effect on oxygen consumption of polymorphonuclear neutrophils: strongly inhibits
[2]
  T.half (fall): 3.78 and 3.55
  T.half (rise): 1.55
Human mast cells
  inhibitory activity on mast cell degranulation compared with reference molecules: superior to kinase inhibitors and chromoglycate
